± gives the standard deviation of the averaged measurements.
System: HL-60
Test: cell viability (% survival relative to DMSO control); higher = less cytotoxic
Settings: 72 h
How it was run: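 In 384-well plates, the full library was rescreened in duplicate on HL-60 cells in RPMI 1640 with 10% FBS, at 1–10,000 nM in five tenfold concentrations, for 72 h at 37 °C, 5% CO2. Each run also held DMSO or 100 nM of one of three metabolic inhibitors. Viability was measured by CellTiter-Glo and normalised to DMSO wells and to wells with proteasome inhibitor, present at 10 μM. Any area under the curve comes from four-parameter log-logistic fitting with drc and PharmacoGx.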

[1] = 0.001 µM, co-treatment: AZD3965 100 nM
[2] = 0.001 µM, co-treatment: DMSO vehicle
[3] = 0.001 µM, co-treatment: GSK2194069 100 nM
[4] = 0.001 µM, co-treatment: pictilisib 100 nM
[5] = 0.01 µM, co-treatment: AZD3965 100 nM
[6] = 0.01 µM, co-treatment: DMSO vehicle
[7] = 0.01 µM, co-treatment: GSK2194069 100 nM
[8] = 0.01 µM, co-treatment: pictilisib 100 nM
[9] = 0.1 µM, co-treatment: AZD3965 100 nM
[10] = 0.1 µM, co-treatment: DMSO vehicle
[11] = 0.1 µM, co-treatment: GSK2194069 100 nM
[12] = 0.1 µM, co-treatment: pictilisib 100 nM
[13] = 1 µM, co-treatment: AZD3965 100 nM
[14] = 1 µM, co-treatment: DMSO vehicle
[15] = 1 µM, co-treatment: GSK2194069 100 nM
[16] = 1 µM, co-treatment: pictilisib 100 nM
[17] = 10 µM, co-treatment: AZD3965 100 nM
[18] = 10 µM, co-treatment: DMSO vehicle
[19] = 10 µM, co-treatment: GSK2194069 100 nM
[20] = 10 µM, co-treatment: pictilisib 100 nM

Row | Structure (SMILES) | cell viability [1] | cell viability [2] | cell viability [3] | cell viability [4] | cell viability [5] | cell viability [6] | cell viability [7] | cell viability [8] | cell viability [9] | cell viability [10] | cell viability [11] | cell viability [12] | cell viability [13] | cell viability [14] | cell viability [15] | cell viability [16] | cell viability [17] | cell viability [18] | cell viability [19] | cell viability [20]
1 | Clc1ccc2c(c1Cl)CNCC2 | 97.69 ± 0.2% | 100 ± 2.3% | 93.2 ± 0.5% | 97.1 ± 7.5% | 94 ± 7.1% | 103.4 ± 0.11% | 102.4 ± 0.12% | 108 ± 11% | 103 ± 2.1% | 103 ± 3.9% | 107 ± 9.4% | 103 ± 8.7% | 105 ± 4.7% | 99.5 ± 2.9% | 106.8 ± 0.64% | 95.3 ± 7.3% | 102 ± 1.6% | 107 ± 6.2% | 99.73 ± 0.7% | 103.3 ± 0.41%
2 | CC(C)Cc1sc(N)nc1-c1ccc(P(=O)(O)O)o1 | 105 ± 4.8% | 101 ± 7.6% | 108 ± 9.1% | 97.8 ± 1.5% | 99.1 ± 8.8% | 100.4 ± 0.35% | 96.7 ± 7.1% | 89.8 ± 15% | 99.2 ± 21% | 105 ± 7.3% | 103 ± 8.6% | 109 ± 9.9% | 102 ± 3.8% | 104 ± 1.7% | 105 ± 3% | 98.8 ± 7.3% | 101 ± 1.6% | 99.2 ± 4.2% | 100 ± 3.6% | 105 ± 9.4%
3 | Cl.OC[C@H]1NC[C@@H](O)[C@@H](O)[C@@H]1O [1-Deoxymannojirimycin hydrochloride] | 100 ± 3.4% | 99 ± 15% | 94.8 ± 6.3% | 95 ± 18% | 99.9 ± 6.2% | 107 ± 2.2% | 90.2 ± 12% | 99.8 ± 5% | 101 ± 1.6% | 100 ± 1.1% | 93.66 ± 0.51% | 102 ± 2.5% | 101.8 ± 0.31% | 106 ± 1.2% | 101 ± 9% | 111.2 ± 1% | 101 ± 5.8% | 95.9 ± 2.1% | 86.6 ± 3% | 104 ± 6.5%
4 | CN(C)c1nc(O)c2[nH]cnc2n1 [2-Dimethylamino-6-hydroxypurine] | 98.9 ± 2.2% | 99.5 ± 1.3% | 98.8 ± 1.3% | 101 ± 8% | 97.93 ± 0.42% | 103 ± 8.9% | 110 ± 20% | 105 ± 3% | 100 ± 2.5% | 96.5 ± 1.1% | 92.4 ± 1.2% | 102.5 ± 0.56% | 97.6 ± 3% | 88.1 ± 12% | 104 ± 12% | 114 ± 16% | 101.2 ± 0.26% | 102 ± 4.7% | 108 ± 16% | 99 ± 9.8%
5 | O=C(O)c1cc2sccc2[nH]1 [4H-thieno[3,2-b]pyrrole-5-carboxylic acid] | 96.3 ± 5.8% | 101.92 ± 0.033% | 99.1 ± 7.8% | 109 ± 14% | 101 ± 5.4% | 101 ± 2.9% | 100.5 ± 0.55% | 94.5 ± 6.3% | 94.6 ± 11% | 103 ± 7.1% | 101.3 ± 0.73% | 97.3 ± 4.2% | 76.4 ± 8.7% | 97.47 ± 0.64% | 90.2 ± 1.1% | 84.3 ± 7.3% | 104 ± 11% | 104 ± 3.8% | 100 ± 9.4% | 99.3 ± 9.8%
6 | [N-]=[N+]=CC(=O)CC[C@H](N)C(=O)O [6-Diazo-5-oxo-L-norleucine] | 97.4 ± 11% | 98.1 ± 2.5% | 96.8 ± 8.2% | 86.7 ± 24% | 97.3 ± 4.9% | 100.1 ± 0.89% | 101 ± 3.5% | 102 ± 4.2% | 111 ± 13% | 103 ± 1.3% | 105 ± 9.1% | 102 ± 3.5% | 100.44 ± 0.019% | 101 ± 2.2% | 103 ± 6.7% | 105 ± 7.1% | 100 ± 1.3% | 101 ± 2.1% | 101.3 ± 0.3% | 87.8 ± 10%
7 | Sc1ncnc2nc[nH]c12 [6-mercaptopurine] | 101.3 ± 0.71% | 104 ± 1.1% | 99.93 ± 0.86% | 102 ± 1.8% | 102.8 ± 0.97% | 98.8 ± 7% | 106 ± 2.9% | 108 ± 6.8% | 96.3 ± 2% | 97.9 ± 2.4% | 95.62 ± 0.77% | 91.2 ± 1% | 101.2 ± 0.68% | 102 ± 4.9% | 89.8 ± 13% | 98.3 ± 10% | 23.9 ± 2% | 35.1 ± 1.3% | 35.9 ± 3% | 32.6 ± 0.66%
8 | O=C(O)CC[C@H](NC(=O)c1ccc([N+](=O)[O-])cc1)C(=O)O [(S)-2-(4-Nitrobenzamido)pentanedioic acid] | 103.2 ± 0.55% | 101.4 ± 0.26% | 101 ± 4% | 90.7 ± 1.9% | 106 ± 5.3% | 100 ± 2.4% | 110 ± 1.1% | 102 ± 1.9% | 102 ± 1.6% | 99 ± 1.6% | 103 ± 4.5% | 88.78 ± 0.71% | 102 ± 2.1% | 102 ± 2.3% | 102 ± 3.7% | 102 ± 10% | 103 ± 7.4% | 101 ± 1.4% | 99.2 ± 2.3% | 92.3 ± 24%
9 | O=C1Nc2ccccc2/C1=C\NCCc1ccc(O)c(O)c1 [AC1NZZMF] | 95.6 ± 7.7% | 103 ± 1.8% | 99.4 ± 2.7% | 102 ± 6.3% | 90.2 ± 23% | 100.1 ± 0.38% | 98.5 ± 11% | 110 ± 4.9% | 102 ± 4% | 102 ± 1.2% | 100 ± 1.1% | 97.2 ± 13% | 105 ± 8.5% | 102.2 ± 0.11% | 99 ± 0.43% | 103 ± 13% | 87.9 ± 9.7% | 100.97 ± 0.1% | 95.4 ± 1.8% | 74.1 ± 3.9%
10 | Cc1ccc(S(=O)(=O)NC2c3ccccc3Oc3ccccc32)cc1 [AH-7614] | 100 ± 1.6% | 100 ± 0.64% | 104 ± 2.2% | 104.2 ± 0.15% | 99.6 ± 0.97% | 100.5 ± 0.4% | 101 ± 2.9% | 90.6 ± 8.2% | 102 ± 4.4% | 100.4 ± 0.53% | 96.8 ± 5.2% | 96.6 ± 2.9% | 97.3 ± 4.8% | 102.5 ± 0.72% | 95.1 ± 9.7% | 92.2 ± 15% | 95.8 ± 1.2% | 96.04 ± 0.12% | 97.2 ± 3.4% | 96.4 ± 7%

Reference: the supplement of paper PMC8671470
